Laboratory results from patent US8200312B2, “Apparatus for monitoring a system pressure in space with time and method for assessing drug delivery and resistance to therapy and product” (Yeda Research and Development Co. Ltd., priority 2006, dated 2012).
“Also recorded” adds a separate entry of the source.

Legend:
[1] = tested on: ectopic human non-small-cell lung cancer and orthotopic MCF7 human breast tumors; details: slow infusion for ~2 hours; cited from earlier work
[2] = as previously reported (44); cited from earlier work
fibrosarcoma mouse model = details: cited from earlier work
[3] = tested on: H460 human non-small-cell lung cancer tumors; test: Dynamic contrast-enhanced MRI during slow GdDTPA infusion: vascular parameters before and after collagenase; format: in vivo, female CD1-NU immunodeficient mice
Experimental: (§1) Collagenase catalyzes the degradation of collagen fibers. Changing the collagen microfibrillar network in tumors modulates the extracellular matrix and causes a decrease in IFP (10, 26). H460 tumors were monitored during infusion, in the dynamic period and at steady state 24 h before and ˜5 h after collagenase administration (0.4 mg/kg body w). […] Similarly, maps of transcapillary transfer due to pressure gradients, k^ΔP, and the profiles of this parameter across the tumor indicated a change, particularly in the tumor's central region, from a negative k^ΔP before collagenase to a null or positive k^ΔP after collagenase (FIG. 6).
(§2) Human NCI-H460 non small cell lung cancer (NSCLC) cells were cultivated and implanted into the flanks of female CD1-NU immunodeficient mice, as previously described (4). During the MRI experiments, mice were anaesthetized by inhalation of 1% isofluorane (Medeva Pharmaceuticals, Inc., Rochester, N.Y., USA) in an O2/N2O (3:7) mixture applied through a nose cone (4). Collagenase (Sigma-Aldrich, St Louis, Mo., USA) treatment was applied by i.v. injection of 0.4 mg/kg body w of this enzyme (1 mg=161 collagen digestion units).
MRI scanning was performed on a 4.7-T Biospec spectrometer (Bruker Biospin, Rheinstetten, Germany) employing the same spatial resolution of 0.2×0.2×1 mm^3 in all protocols. Delineation of the boundary of the tumors and determination of their volume was achieved by analyzing images recorded with a 2-dimensional fast spin echo sequence using […] as previously described (40).
(§3) Tissue contrast agent concentration at steady state infusion was determined from measurements of T1 relaxation rates before, and at 90 min after the start of the intravenous infusion of the contrast agent as previously described (4). For the dynamic measurements 3-dimensional T1. weighted gradient echo images were recorded using TErTR=2.1/18.3 ms and flip angle=45°, 47 s temporal resolution. After recording 5 pre-contrast images, slow infusion of GdDTPA (gadopentate-dimeglumine, Schering, Berlin, Germany) was initiated at a rate of 0.011 mmol/min/kg body wt. for a total time of 120 min.
Analysis of the dynamic data collected during the slow infusion was performed at pixel resolution, on the basis of a model proposed by Jain et al (1, 35, 41-43). This model takes into account the transfer of solutes through the capillary walls and within the interstitial spaces by both diffusion in the direction of the concentration gradients and convection in the direction of the pressure gradients. Relying on few assumptions, which are described herein two differential equations were solved. The first equation applies to regions with low IFP were positive pressure gradients favors net transfer of contrast agent from the capillaries into the tissue (see equation 1) and the second one applies to intra tumoral regions with high IFP where a pressure gradients in the interstitium favors outward convection of the contrast agent and reduces the net delivery to these regions (see equation 2).
Where Ct is the contrast agent concentration in the entire tissue, Dinf is the contrast agent-infusion rate, k^trans the transcapillary transfer constant, k^ΔP the pressure gradients derived transfer rate which also depends on the shape, morphology, and the hydraulic conductivity of the tissue (1). νe represents the extracellular extravascular (EES) volume fraction, and νp the intravascular volume fraction. The parameters ai, and mi (i=1,2) represent the average plasma pharmacokinetic amplitude and time constant parameters, respectivelyt calculated to be a1=2.94 kg/l, a2=4.85 kg/l, m1=0.73 min^−1, and m2=0.075 min^−1 as previously reported (44).
A nonlinear “best fit” algorithm (40) was applied to fit the time courses to Equations 1 and 2, calculating the proportion of variability, R^2, per pixel for each fitting. […]

[4] = tested on: human osteosarcoma xenografts; details: collagenase (0.1%), cited from earlier work
tumors = details: intra-tumoral injection; cited from earlier work
H460 tumors = test: Steady-state tissue GdDTPA concentration maps (T1 relaxation MRI) before and after collagenase; format: in vivo, female CD1-NU immunodeficient mice
Experimental: as §1, §2, §3
Tissue GdDTPA concentration (CGd) at steady state was calculated at pixel resolution from the T1 measurements, as previously described (4).

[5] = inside H460 tumors (excluding the rim), 5 h after collagenase administration
[6] = H460 tumors, within hours after administration
[7] = steady state infusion, ~5 h after collagenase 0.4 mg/kg

In the case of O=C([O-])CN(CCN(CC(=O)[O-])CC(=O)O)CCN(CC(=O)[O-])CC(=O)O.[Gd+3] [GdDTPA, gadolinium-diethylenetriaminepentaacetic acid], the “steady-state tissue GdDTPA concentration further inside the tumor” value [1] is given as “low or null values”, the “steady-state tissue GdDTPA concentration in the tumor periphery” value [1] is given as ~0.5 mmol/L and the “steady-state tissue GdDTPA concentration outside the tumor boundaries” value [1] is given as ~1 mmol/L. The “a1, average plasma pharmacokinetic amplitude” value [2] was 2.94 kg/L, the “a2, average plasma pharmacokinetic amplitude” value [2] was 4.85 kg/L and the “m1, plasma time constant parameter” value [2] was 0.73 min⁻¹. For the same compound, the “m2, plasma time constant parameter” value [2] was 0.075 min⁻¹.
For O=C1CCC(N2C(=O)c3ccccc3C2=O)C(=O)N1 (stereo not drawn) [thalidomide], the “plasma volume fraction and fractional efflux rate from the interstitial space to the plasma” value (fibrosarcoma mouse model; accompanying the decline in IFP) is listed as “increased” and the “effect on IFP” value (fibrosarcoma mouse model; fibrosarcoma mouse model) is listed as “decline”.
For collagenase, the “all other vascular parameters derived from the analysis, change after collagenase” value ([3]; H460 tumors, ~5 h after collagenase 0.4 mg/kg) was “did not change significantly”, the “change of pressure dependent transfer constant in the tumors' central/internal regions after collagenase” value ([3]; H460 tumors, from negative to positive values) was “significant increase; also recorded: significant change” and the “k^ΔP in the internal parts of the tumors following collagenase treatment” value ([3]; increased from (−2.6±3.7)*10^−3, paired t-test, p=0.016) was 8.6±8.9 *10^−3. The “K^trans*10^−3” value [3, 5] was 3.7 ± 3.4 *10^−3, the “[…]e (extracellular extravascular volume fraction)” value [3, 5] was 0.24 ± 0.06 and the “[…]p (intravascular volume fraction)” value [3, 5] was 0.053 ± 0.027. For the same compound, the “K^□p*10^−3 (pressure dependent transfer constant)” value ([3]; inside H460 tumors (excluding the rim), 5 h after collagenase administration, 0.4 mg/kg i.v., mean ± SD) was 8.6 ± 8.9 *10^−3, the “effect on IFP” value ([4]; within hours) was “reduced IFP” and the “increase in the tumor uptake and distribution of a monoclonal antibody” value [4] was 2 fold. For the same compound, the “effect on IFP” value (tumors) was “reduce IFP”, the “effect on uptake of antibodies” value (tumors) was “increase the uptake” and the “steady state tissue GdDTPA concentration in the internal parts after collagenase treatment” value (H460 tumors; H460 tumors) was “significantly increased”. The “effect on IFP” value (H460 tumors; [6]) was “reduces IFP”, the “effect on uptake of a contrast agent” value (H460 tumors; [6]) was “increases the uptake” and the “outward convection after collagenase treatment” value (H460 tumors; [7]) was “vanished”. The “transfer of the contrast agent in the interior regions of the tumor after collagenase” value (H460 tumors; [7]) was “markedly increased”.
In the case of hyaluronidase, the “effect on IFP” value (tumors) is listed as “reduce IFP” and the “effect on uptake of antibodies” value (tumors) is listed as “increase the uptake”.
